Measured values taken from paper PMC10005185, “Structure-guided engineering of a receptor-agonist pair for inducible activation of the ABA adaptive response to drought” (Science Advances, 2023).
Read-outs that look alike come from different tables or passages of the source.

Legend:
AtHAB1ΔN with CsPYL1^5m = test: PP2C inhibition assay, HAB1 with CsPYL1^5m; format: biochemical, Citrus sinensis (CsPYL1^5m); Arabidopsis thaliana (HAB1)
Description: His-tagged receptors and phosphatases were purified using nickel–nitrilotriacetic acid (Ni-NTA) affinity chromatography. Protein integrity was analyzed by SDS–polyacrylamide gel electrophoresis, followed by InstantBlue staining. Phosphatase activity was measured using p-Nitrophenyl Phosphate (pNPP) (25 mM) as substrate, 10 mM MnCl2,1 μM PP2C, and 2 μM of the indicated receptors. […] Assays were repeated twice. For dose-response experiments, IC50 values were obtained with GraphPad Prism 9 using a nonlinear regression curve fit. Each ligand concentration was tested in triplicate. Phosphatase activity of ABI1 was measured using RRA(phosphoT)VA peptide as a substrate, as described ([27]).

[1] = system: Nicotiana benthamiana WT plants; test: IR thermography of leaf temperature, N. benthamiana; format: in vivo; details: nontransformed leaves, 24 hours after spraying, 50 μM ABA or 100 μM iSB07 or iSB09, compared to mock
Description: IR images were taken using a FLIR […] thermocamera 1 day after the treatment (for N. benthamiana) or 2 and 5 days (for S. lycopersicum). Quantification was performed using the FLIR tools software on fully expanded leaves by analyzing 10 sections per leaf. At least six plants per genotype and treatment were analyzed in each experiment. Experiments were repeated twice. The average plant temperature ± SD of all the plants for each treatment and genotype was calculated and used to report the increase in temperature produced by each treatment. Statistical comparisons among genotypes were performed by either pairwise t tests or one-way ANOVA.

[2] = system: Arabidopsis thaliana seeds (WT Col-0, CsPYL1 and CsPYL1^5m lines); test: Seed germination assay; format: in vivo; details: Arabidopsis thaliana
Description: For seed germination assays, seeds were stratified in the dark at 4°C for 3 days. Approximately 100 seeds of each genotype were sown on MS plates supplemented with six different ligand concentrations. The experiments were repeated three times. To score seed germination, radical emergence was analyzed at 24 hours after sowing.

AtPYL5:ΔNHAB1 = AtPYL5:ΔNHAB1 (Arabidopsis thaliana, UniProt Q9FLB1); test: Native red electrophoresis of ligand-induced ternary complex
Chain of AtPYL5:ΔNHAB1 (Q9FLB1 whole entry, stated change not applied): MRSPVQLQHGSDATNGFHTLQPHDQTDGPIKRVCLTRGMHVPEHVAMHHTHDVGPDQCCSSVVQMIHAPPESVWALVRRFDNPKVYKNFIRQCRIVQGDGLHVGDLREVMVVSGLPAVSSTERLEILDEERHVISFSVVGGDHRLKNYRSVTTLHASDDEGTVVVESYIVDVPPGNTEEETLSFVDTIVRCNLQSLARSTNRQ
Description: Electrophoresis was performed at a constant current of 25 mA for 150 min at 4°C. Proteins were detected in gel by InstantBlue staining, and band quantification was performed using the ImageJ software. To obtain apparent Kd values, the proportion of ternary complex formed (fraction bound) and the ABA or iSB09 free concentration in each lane were calculated and plotted as represented in Fig. 3 (E and F). Then, the dose-response curves were fitted to the classical Hill equation using the GraphPad Prism software.

ABI1 with AtPYR1 = target: T1, ABI1 with AtPYR1 (Arabidopsis thaliana, UniProt O49686); test: PP2C inhibition assay, ABI1 with AtPYR1; format: biochemical
T1 construct: His; made in house
T1 sequence (O49686 whole entry): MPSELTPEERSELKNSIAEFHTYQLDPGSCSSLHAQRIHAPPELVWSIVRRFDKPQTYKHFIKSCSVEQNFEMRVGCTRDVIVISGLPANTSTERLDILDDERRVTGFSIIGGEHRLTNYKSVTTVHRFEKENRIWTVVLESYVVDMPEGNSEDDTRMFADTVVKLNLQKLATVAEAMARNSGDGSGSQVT
T1 sequence (P49597 whole entry partner): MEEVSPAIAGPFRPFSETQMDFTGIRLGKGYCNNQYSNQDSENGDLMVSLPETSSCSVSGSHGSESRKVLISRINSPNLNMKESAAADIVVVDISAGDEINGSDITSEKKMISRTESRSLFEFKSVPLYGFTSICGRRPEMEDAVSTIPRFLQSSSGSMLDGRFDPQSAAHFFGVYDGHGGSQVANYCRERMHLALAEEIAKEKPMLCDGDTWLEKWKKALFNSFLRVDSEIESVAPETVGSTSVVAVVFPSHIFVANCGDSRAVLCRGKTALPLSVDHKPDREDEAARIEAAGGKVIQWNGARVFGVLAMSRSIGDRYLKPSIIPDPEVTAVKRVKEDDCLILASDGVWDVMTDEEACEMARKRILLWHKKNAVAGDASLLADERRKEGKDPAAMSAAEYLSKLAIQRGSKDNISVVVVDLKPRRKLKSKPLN
Description: (§1) His-tagged receptors and phosphatases were purified using nickel–nitrilotriacetic acid (Ni-NTA) affinity chromatography. Protein integrity was analyzed by SDS–polyacrylamide gel electrophoresis, followed by InstantBlue staining. Phosphatase activity was measured using p-Nitrophenyl Phosphate (pNPP) (25 mM) as substrate, 10 mM MnCl2,1 μM PP2C, and 2 μM of the indicated receptors. Proteins were incubated with the ligands for 10 min at room temperature. pNPP was then added to start the reactions, and the absorbance at 405 nm was monitored for 20 min in a ViktorX5 plate reader. Assays were repeated twice. For dose-response experiments, IC50 values were obtained with GraphPad Prism 9 using a nonlinear regression curve fit. Each ligand concentration was tested in triplicate. Phosphatase activity of ABI1 was measured using RRA(phosphoT)VA peptide as a substrate, as described ([27]). […]
(§2) (D) Dose response analysis of iSB09 or ABA-dependent inhibition of ABI1 (blue and black lines, respectively) in presence of either AtPYL1 or AtPYR1. Values (average of duplicates) show PP2C activity after incubation with the indicated concentration of ligand and receptor at 1:2 ratio (1 µM phosphatase:2 µM receptor). […]
(§3) whereas with AtPYR1 was 200 nM and 213 nM, for ABA and iSB09, respectively. Ligands were assayed

ABI1 with AtPYL1 = target: T2, ABI1 with AtPYL1 (Arabidopsis thaliana, UniProt Q8VZS8); test: PP2C inhibition assay, ABI1 with AtPYL1; format: biochemical
T2 construct: His; made in house
T2 sequence (Q8VZS8 whole entry): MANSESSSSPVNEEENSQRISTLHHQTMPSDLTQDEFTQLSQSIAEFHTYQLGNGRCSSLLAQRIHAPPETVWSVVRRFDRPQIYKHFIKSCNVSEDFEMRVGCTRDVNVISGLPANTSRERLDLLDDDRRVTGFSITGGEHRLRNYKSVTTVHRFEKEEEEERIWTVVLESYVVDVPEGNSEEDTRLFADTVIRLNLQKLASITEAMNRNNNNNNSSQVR
T2 sequence (P49597 whole entry partner): as the sequence (P49597 whole entry partner) above
Description: as §1, §2, §3

[3] = system: Arabidopsis thaliana seedlings (WT Col-0, overexpressing lines, receptor mutants); details: pyr1 pyl1 double mutant ref 36; cited from earlier work
tomato plants = test: IR thermography of leaf temperature, tomato; format: in vivo, Solanum lycopersicum; details: 10 μM, 2 and 5 days after spraying
Description: For experiments using N. benthamiana or S. lycopersium, 1-month-old plants grown under long-day conditions (16-hour light/8-hour dark) were sprayed with 10 mM MES (pH 5.7) + 0.02% Silwet L77 supplemented with either 50 μM ABA, or the indicated concentration of iSB07/iSB09 or 0.1% DMSO as a mock-treated control. IR images were taken using a FLIR E95 thermocamera 1 day after the treatment (for N. benthamiana) or 2 and 5 days (for S. lycopersicum). Quantification was performed using the FLIR tools software on fully expanded leaves by analyzing 10 sections per leaf. At least six plants per genotype and treatment were analyzed in each experiment. Experiments were repeated twice. The average plant temperature ± SD of all the plants for each treatment and genotype was calculated and used to report the increase in temperature produced by each treatment. Statistical comparisons among genotypes were performed by either pairwise t tests or one-way ANOVA.
(§4) Fig. S6. QB lacks bioactivity in tomato whereas iSB09 is
(§5) (A) Quantification of the leaf temperature difference at 2 and 5 days after spraying tomato plants with 0.1 % DMSO
(§6) (mock- treated control), 10 µM iSB09 or 10 µM QB.
Asterisk indicates p<0.001 (Student’s t test). Values show individual points and average ± SD (n=4 replicates for mock and chemical treatments). (B) IR-images of representative tomato plants at 2 days after being treated with 0.1 % DMSO
Photographs were taken with white light (leaf panel) or infrared thermography (right panel) using the camera FLIR
HAB1 phosphatase activity in presence of PYL4. IC50 values for iSB09 or QB-dependent inhibition of HAB1 by AtPYL4. Values (average of duplicates) show PP2C activity after incubation with the indicated concentration of ligand and AtPYL4 at 1:2 ratio (1 µM phosphatase:2 µM receptor).
(1 picture or pasted object on this page, not shown here)

ΔNHAB1 with AtPYL10 = target: T3, ΔNHAB1 with AtPYL10 (Arabidopsis thaliana, UniProt Q8H1R0); details: AtPYL10 ref 45; cited from earlier work
T3 construct: His; made in house
T3 sequence (Q8H1R0 whole entry, stated change not applied): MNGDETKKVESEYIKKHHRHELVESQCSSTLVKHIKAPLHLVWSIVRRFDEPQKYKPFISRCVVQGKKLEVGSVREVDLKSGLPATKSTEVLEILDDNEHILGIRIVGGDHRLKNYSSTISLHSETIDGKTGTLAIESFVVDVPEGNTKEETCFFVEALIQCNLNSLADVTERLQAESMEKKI

ΔNHAB1 with AtPYL1 = target: T4, ΔNHAB1 with AtPYL1 (Arabidopsis thaliana, UniProt Q8VZS8); details: AtPYL1 ref 45; cited from earlier work
T4 construct: His; made in house
T4 sequence (Q8VZS8 whole entry, stated change not applied): as the sequence (Q8VZS8 whole entry) above

HAB1 with AtPYL4 = target: T5, HAB1 with AtPYL4 (Arabidopsis thaliana, UniProt O80920); test: PP2C inhibition assay, HAB1 with AtPYL4; format: biochemical; details: 1 µM phosphatase:2 µM receptor
T5 construct: His; made in house
T5 sequence (Q9CAJ0 179-511): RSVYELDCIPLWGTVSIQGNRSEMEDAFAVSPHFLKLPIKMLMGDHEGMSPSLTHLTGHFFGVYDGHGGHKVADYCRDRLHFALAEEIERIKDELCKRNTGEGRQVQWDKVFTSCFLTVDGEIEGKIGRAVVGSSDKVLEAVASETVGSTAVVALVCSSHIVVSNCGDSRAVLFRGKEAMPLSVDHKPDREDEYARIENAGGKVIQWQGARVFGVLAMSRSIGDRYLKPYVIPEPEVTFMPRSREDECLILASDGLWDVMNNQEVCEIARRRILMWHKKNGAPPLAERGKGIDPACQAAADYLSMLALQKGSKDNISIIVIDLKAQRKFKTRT
T5 sequence (O80920 whole entry): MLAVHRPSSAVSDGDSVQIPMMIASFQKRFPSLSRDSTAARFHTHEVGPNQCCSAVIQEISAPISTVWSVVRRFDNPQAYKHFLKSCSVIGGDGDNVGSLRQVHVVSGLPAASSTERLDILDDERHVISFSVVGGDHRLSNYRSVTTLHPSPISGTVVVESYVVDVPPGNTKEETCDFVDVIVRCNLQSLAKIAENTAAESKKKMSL
Description: His-tagged receptors and phosphatases were purified using nickel–nitrilotriacetic acid (Ni-NTA) affinity chromatography. Protein integrity was analyzed by SDS–polyacrylamide gel electrophoresis, followed by InstantBlue staining. Phosphatase activity was measured using p-Nitrophenyl Phosphate (pNPP) (25 mM) as substrate, 10 mM MnCl2,1 μM PP2C, and 2 μM of the indicated receptors. Proteins were incubated with the ligands for 10 min at room temperature. pNPP was then added to start the reactions, and the absorbance at 405 nm was monitored for 20 min in a ViktorX5 plate reader. Assays were repeated twice. For dose-response experiments, IC50 values were obtained with GraphPad Prism 9 using a nonlinear regression curve fit. Each ligand concentration was tested in triplicate. Phosphatase activity of ABI1 was measured using RRA(phosphoT)VA peptide as a substrate, as described ([27]).
as §4, §5, §6
Asterisk indicates p<0.001 (Student’s t test). Values show individual points and average ± SD (n=4 replicates for mock and chemical treatments). (B) IR-images of representative tomato plants at 2 days after being treated with 0.1 % DMSO […]

[4] = system: Arabidopsis thaliana seedlings; test: Root growth assay; format: in vivo; details: 10 μM
Description: Seedlings were grown on vertically oriented Murashige and Skoog (MS) plates for 4 to 5 days. Afterward, seedlings were transferred to MS supplemented with the indicated concentrations of the different ligands and kept on vertical orientation. Ten days later, the plates were scanned on a flatbed scanner to produce image files suitable for quantitative analysis of root growth using the NIH Image software ImageJ. The experiment was performed in triplicate (n = 13 to 16). Statistical comparisons were performed by either pairwise t tests or one-way ANOVA using GraphPad Prism 9.

[5] = system: Arabidopsis thaliana plants (WT Col-0, CsPYL1^5m lines); test: Whole-plant gas exchange, stomatal conductance (Gs); format: in vivo
Description: A. thaliana seeds were planted in specific gas exchange pots, where above- and below-ground parts can be separated by glass into 2:1 (v:v) peat:vermiculite mixture. The plants were grown in growth chambers (Snijders Scientific, Drogenbos, Belgium) at 12/12 photoperiod, 23/18°C temperature, 160 μmol m^−2 s^−1 light, and 70% relative humidity and were 23 to 28 days old during gas exchange experiments. Whole-rosette stomatal conductances were recorded with an eight-chamber custom-built temperature-controlled gas exchange device as described before ([72]). Plants were inserted into the measurement cuvettes and allowed to stabilize at standard conditions: ambient CO2, ~420 ppm; air temperature, 24° ± 0.5°C; light, 160 μmol m^−2 s^−1; relative air humidity, 66 ± 3%. For sprayings, plants were removed from gas exchange cuvettes, sprayed with respective solutions, and put back into the cuvettes for stomatal conductance recordings for 56 min. To check the long-term effect of compounds on plants, stomatal conductance measurements were performed about 24 and 48 hours after sprayings. In the meantime, plants were kept in growth chambers as described above. Photographs of plants were taken after the experiment, and leaf rosette area was calculated using ImageJ 1.37v [National Institutes of Health (NIH), USA]. Stomatal conductance for water vapor was calculated with a custom-written program as described ([72]).

[6] = system: Arabidopsis thaliana plants; test: IR thermography of leaf temperature, arabidopsis; format: in vivo; details: transgenic CsPYL1^5m lines and Col-0, 50 μM, 24 hours after spraying
Description: A. thaliana plants were grown in a controlled environment growth chamber at 21°/19°C under 8-hour light/16-hour dark photoperiod at 100 μE m^−2 s^−1. IR thermography images of rosette leaves were acquired with a thermal camera FLIR E95 equipped with a 42° lens, 24 hours after spraying 6-week-old plants with 10 mM MES (pH 5.7) + 0.02% Silwet L-77 plus 50 μM ligand or 0.1% DMSO as a control. Images were processed and quantified with the FLIR tools software. The average temperature of 15 different sections taken from four to six leaves per plant was used for quantification. At least six plants per genotype were analyzed, and the experiments were repeated twice. Statistical analysis was performed using GraphPad Prism 9. T test or ANOVA analysis was carried out to identify statistical significance among datasets.

[7] = system: MAPKKK18 promoter-LUC reporter; test: pMAPKKK18-LUC luciferase reporter assay; format: in vivo, Arabidopsis thaliana; details: 100 μM, 6 hours
Description: […]18-LUC seedlings were grown in 24-well plates (25 to 35 seeds per well) filled with 1 ml of liquid MS medium for 7 days. MS medium was replaced with fresh medium supplemented with 100 μM D-luciferin, potassium salt (GoldBio), and the indicated treatments with iSB07, iSB09, or ABA. Seedlings were incubated for 6 hours, and luminescence was recorded with a LAS-3000 imager (Fujifilm) equipped with a charge-coupled device camera using 2-min exposures. Eight-bit images were transformed in rainbow false color and quantified using Fiji. The experiment was repeated at least twice.

SMILES: CC1=CC(=O)CC(C)(C)[C@@]1(O)/C=C/C(C)=C\C(=O)O [ABA, abscisic acid, reference compound]
- IC50 of ABA for CsPYL1^5m compared to WT CsPYL1 (AtHAB1ΔN with CsPYL1^5m): fourfold increase
- leaf temperature by thermal imaging [1]: increased leaf temperature
- IC50 ([2]; read-out: Germination IC50, WT Col-0): 216 nM
- IC50 ([2]; read-out: Germination IC50, line expressing CsPYL1): 304 nM
- IC50 ([2]; read-out: Germination IC50, line expressing CsPYL1^5m): 458 nM
- Kd (AtPYL5:ΔNHAB1): 2100 nM
- IC50 (ABI1 with AtPYR1): 200 nM
- IC50 (ABI1 with AtPYL1): 274 nM

SMILES: CCCN1C(=O)CCc2cc(NS(=O)(=O)Cc3c(F)c(F)c(C)c(F)c3F)ccc21 [AMF4]
- effect in pyr1 pyl1 double mutant [3]: lack effect

SMILES: CCCN1C(=O)CCc2cc(NS(=O)(=O)Cc3ccc(C)cc3)ccc21 [QB, quinabactin]
- bioactivity in tomato (leaf temperature) (tomato plants): lacked bioactivity
- receptor activation (ΔNHAB1 with AtPYL10): not AtPYL10
- receptor activation (ΔNHAB1 with AtPYL1): activates AtPYL1
- IC50 (HAB1 with AtPYL4): 1880 nM
- effect in pyr1 pyl1 double mutant [3]: lack effect

SMILES: Cc1cc(=O)n(C)c2ccc(CNS(=O)(=O)c3ccccc3)cc12 [iSB07]
- inhibition of root growth ([4]; CsPYL1^5m lines): marked inhibition
- inhibition of root growth ([4]; WT plants): did not significantly inhibit
- leaf temperature by thermal imaging [1]: increased leaf temperature
- IC50 ([2]; WT Col-0, read-out: Germination IC50): 12700 nM
- IC50 ([2]; line expressing CsPYL1, read-out: Germination IC50): 4030 nM
- IC50 ([2]; line expressing CsPYL1^5m, read-out: Germination IC50): 943 nM
- reduction of stomatal conductance (Gs) ([5]; WT, spraying with 20 μM): not effective
- reduction of Gs 24 and 48 hours after spraying ([5]; transgenic lines, 5 μM): nonsignificant
- leaf temperature by thermal imaging [6]: increased leaf temperature
- induction of LUC relative to iSB09 [7]: approximately fivefold lower
